Reference: patent US6723747B2, “Substituted 6H-DiBenzo[c,h]chromenes as estrogenic agents” (Wyeth, priority 2001, dated 2004)

Experiments:
[1] = tested on: progesterone receptor mRNA in the preoptic area of the rat brain; test: Progesterone receptor mRNA regulation test procedure; type: in vivo; conditions: 10 mg/kg, vehicle 189.2 ± 27.2
Excerpt: This test procedure can be used to evaluate the estrogenic or antiestrogenic activity of compounds from this invention [Shughrue, et al., Endocrinology 138: 5476-5484 (1997)].

human ERβ = target: T1, human ERβ (Homo sapiens, UniProt Q92731); test: Radioligand binding competition with [3H]-17β-estradiol, ERβ; conditions: human ERβ ligand binding domain, read-out: ER-β IC50
T1 construct: M214-Q530 of human ERβ; Flag (C); made in house; host or cells: E. coli BL21(DE3), clarified lysate

HLA-B27 rats = test: HLA-B27 rat model of arthritis; type: in vivo; conditions: 10 mg/kg orally once daily, Study 2
Excerpt: The degree of arthritis severity is monitored daily in terms of the following disease indices: Hindpaw erythema, hindpaw swelling, tenderness of the joints, and movements and posture. An integer scale of 0 to 3 is used to quantify the level of erythema (0=normal paw, 1=mild erythema, 2=moderate erythema, 3=severe erythema) and swelling (0=normal paw, 1=mild swelling, 2=moderate swelling, 3=severe swelling of the hind paw). The maximal score per day is 12.
Evaluation in the HLA-B27 Rat model of arthritis. Representative compounds of the invention were evaluated in the HLA-B27 rat standard pharmacological test procedure which emulates arthritis in humans. The following briefly describes the procedure used and results obtained. Male HLA-B27 rats (8-10 weeks old) were obtained from Taconic and provided unrestricted access to a food (PMI Lab diet 5001) and water. Rats were dosed orally once daily with either vehicle (2% tween-80/0.5% methylcellulose) or test compound (10 mg/kg) for 26 days. Joint scores and histology are evaluated as described above for the Lewis rat model of adjuvant-induced arthritis.

129 SvE mice = test: Mouse uterotrophic test procedure (Procedure 2); type: in vivo; conditions: 50 mg/kg subcutaneously, 4 days, immature mice; first experiment, vehicle 9.5 ± 0.3
Experimental: Procedure 2: Sexually immature (18 days of age) 129 SvE mice were obtained from Taconic and provided unrestricted access to a casein-based diet (Purina Mills 5K96C) and water. On day 22, 23, 24 and 25 the mice were dosed subcutaneously with compound or vehicle (corn oil). There were six mice/group and they were euthanized approximately 6 hours after the last injection by CO2 asphyxiation and pneumothorax. Uteri were removed and weighed after trimming associated fat and expressing any internal fluid. The following results (Table (2)) were obtained for representative compounds from the invention.

T1 sequence (Q92731 214-530): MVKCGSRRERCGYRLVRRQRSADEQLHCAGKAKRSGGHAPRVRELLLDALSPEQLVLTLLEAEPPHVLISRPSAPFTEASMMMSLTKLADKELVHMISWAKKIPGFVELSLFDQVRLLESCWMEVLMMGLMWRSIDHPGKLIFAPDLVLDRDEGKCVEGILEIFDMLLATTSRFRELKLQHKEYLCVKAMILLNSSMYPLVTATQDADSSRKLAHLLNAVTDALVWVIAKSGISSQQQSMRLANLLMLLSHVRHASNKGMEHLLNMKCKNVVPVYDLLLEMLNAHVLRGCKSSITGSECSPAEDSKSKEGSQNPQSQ

With `N#Cc1cc2c(c3ccc(O)cc13)OCc1cc(O)ccc1-2` [Example 1d, 2,8-Dihydroxy-6H-dibenzo[c,h]chromene-12-carbonitrile] the “Progesterone receptor mRNA (mean ± stdev)” value [1] was 403.9 ± 19.1 arbitrary units, the melting point was greater than 250 °C and the IC50 (human ERβ) was 1.8 nM. The joint inflammation score (HLA-B27 rats; day 1, vehicle 0) was 0, the joint inflammation score (HLA-B27 rats; day 2, vehicle 0) was 0 and the joint inflammation score (HLA-B27 rats; day 3, vehicle 0) was 0. It also gave a joint inflammation score (HLA-B27 rats; day 4, vehicle 0) of 0, a joint inflammation score (HLA-B27 rats; day 5, vehicle 0) of 0 and a joint inflammation score (HLA-B27 rats; day 6, vehicle 0) of 0. The joint inflammation score (HLA-B27 rats; day 7, vehicle 0) was 0, the joint inflammation score (HLA-B27 rats; day 8, vehicle 2.5) was 2 and the joint inflammation score (HLA-B27 rats; day 9, vehicle 3.75) was 1.25. It also gave a joint inflammation score (HLA-B27 rats; day 10, vehicle 2.75) of 1, a joint inflammation score (HLA-B27 rats; day 11, vehicle 3.5) of 0 and a joint inflammation score (HLA-B27 rats; day 12, vehicle 1.25) of 0.5. For the same molecule, the joint inflammation score (HLA-B27 rats; day 13, vehicle 1.25) was 0.25, the joint inflammation score (HLA-B27 rats; day 14, vehicle 1.25) was 0 and the joint inflammation score (HLA-B27 rats; day 15, vehicle 5.25) was 0.25. It also gave a joint inflammation score (HLA-B27 rats; day 16, vehicle 4.5) of 1, a joint inflammation score (HLA-B27 rats; day 17, vehicle 3.5) of 1 and a joint inflammation score (HLA-B27 rats; day 18, vehicle 3.75) of 0.5. For the same molecule, the joint inflammation score (HLA-B27 rats; day 19, vehicle 5.5) was 0.75, the joint inflammation score (HLA-B27 rats; day 22, vehicle 3.25) was 0.25 and the joint inflammation score (HLA-B27 rats; day 23, vehicle 6.5) was 2. It also gave a joint inflammation score (HLA-B27 rats; day 24, vehicle 6.5) of 2, a joint inflammation score (HLA-B27 rats; day 25, vehicle 6.25) of 2 and a joint inflammation score (HLA-B27 rats; day 26, vehicle 7) of 1.75. For the same molecule, the “mean uterine weight ± SEM” value (129 SvE mice) was 9.8 ± 0.5 mg.
